Columns and labels:
Experiment in all cases: relative viability (nuclei count vs DMSO), 5 days (fraction); higher = more cells survive
Crenolanib + Alpelisib = compound: CC1(COc2ccc3c(c2)ncn3-c2ccc3cccc(N4CCC(N)CC4)c3n2)COC1 [Crenolanib] + Cc1nc(NC(=O)N2CCC[C@H]2C(N)=O)sc1-c1ccnc(C(C)(C)C(F)(F)F)c1 [Alpelisib] (partner 2 µM)
Method in brief: (§1)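 Five library-drug doses in √10 steps were combined with a fixed anchor-drug dose, or a single drug was given alone, by pin tool to lung cancer cell lines in 1536-well plates the day after seeding. Nuclei were stained and counted after 5 days. Relative viability is the nuclei count in treated wells over that in vehicle wells, taken as the median of duplicate plates.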

Crenolanib + Foretinib = compound: CC1(COc2ccc3c(c2)ncn3-c2ccc3cccc(N4CCC(N)CC4)c3n2)COC1 [Crenolanib] + COc1cc2c(Oc3ccc(NC(=O)C4(C(=O)Nc5ccc(F)cc5)CC4)cc3F)ccnc2cc1OCCCN1CCOCC1 [Foretinib] (partner 0.25 µM)
Method in brief: as §1

Crenolanib + Vorinostat = compound: CC1(COc2ccc3c(c2)ncn3-c2ccc3cccc(N4CCC(N)CC4)c3n2)COC1 [Crenolanib] + O=C(CCCCCCC(=O)Nc1ccccc1)NO [Vorinostat] (partner 1 µM)
Method in brief: as §1

Tivantinib + Vorinostat = compound: O=C1NC(=O)[C@@H](c2cn3c4c(cccc24)CCC3)[C@@H]1c1c[nH]c2ccccc12 [Tivantinib] + O=C(CCCCCCC(=O)Nc1ccccc1)NO [Vorinostat] (partner 1 µM)
Method in brief: as §1

In the case of UMC-11, the relative viability (Crenolanib + Alpelisib; first compound 0.01 µM) is reported as 1.06, the relative viability (Crenolanib + Alpelisib; first compound 0.03162 µM) is reported as 0.958 and the relative viability (Crenolanib + Alpelisib; first compound 0.1 µM) is reported as 0.956. The relative viability (Crenolanib + Alpelisib; first compound 0.3162 µM) was 1.14, the relative viability (Crenolanib + Alpelisib; first compound 1 µM) was 0.989 and the relative viability (Crenolanib + Foretinib; first compound 0.01 µM) was 1.07. For the same cell line, the relative viability (Crenolanib + Foretinib; first compound 0.03162 µM) was 1.11, the relative viability (Crenolanib + Foretinib; first compound 0.1 µM) was 0.95 and the relative viability (Crenolanib + Foretinib; first compound 0.3162 µM) was 1.21. For the same cell line, the relative viability (Crenolanib + Foretinib; first compound 1 µM) was 0.947, the relative viability (Crenolanib + Vorinostat; first compound 0.01 µM) was 0.383 and the relative viability (Crenolanib + Vorinostat; first compound 0.03162 µM) was 0.453. It also gave a relative viability (Crenolanib + Vorinostat; first compound 0.1 µM) of 0.389, a relative viability (Crenolanib + Vorinostat; first compound 0.3162 µM) of 0.363 and a relative viability (Crenolanib + Vorinostat; first compound 1 µM) of 0.374. The relative viability (Tivantinib + Vorinostat; first compound 0.01 µM) was 0.383, the relative viability (Tivantinib + Vorinostat; first compound 0.03162 µM) was 0.392 and the relative viability (Tivantinib + Vorinostat; first compound 0.1 µM) was 0.328. The relative viability (Tivantinib + Vorinostat; first compound 0.3162 µM) was 0.385.

From the supplement of paper PMC10307832
